Consider 2 compounds from patent US10478437B2, “Combination therapy to enhance the anticancer efficacy of platinum drugs” (University of Pittsburgh-of the Commonwealth System of …, priority 2014, dated 2019).

Structures are written as SMILES. “Also recorded” adds a separate entry of the source. Some results are limits rather than exact numbers.

Type in all cases: cell-based, human
Assay [1] deals with A2780cis cells. Description: Short-term (3 h) exposure, cell survival by CellTiter-Blue after 48 h in compound free media. The note with it: cisplatin alone, viability after two days, in words. As to the method: FIG. 5. Short-term exposure of A2780cis cells to the combination of cisplatin and compound 1-6 dramatically reduces cell survival. A2780cis cells were treated with increasing doses of cisplatin alone or the combination of cisplatin with compound 1-6 (20 μM) for 3 h. The compounds were then washed out. Cell survival was determined after 48 h incubation of cells in compound free media by CellTiter-Blue assay.
Further analysis was performed with compound 1-6. […] This synergism for the combination of cisplatin and 1-6 was further confirmed using a fresh sample of high chemical purity (98%). This synergistic effect was also observed using the CellTiter-Blue cell viability assay (FIG. 5) under an alternative exposure strategy that mimics in viva drug administration to test the combination effect. Considering the clearance of cisplatin over the time and the duration of exposure of tumor cells to the effective doses of the drugs in vivo (Los et al., 1989), a short-term exposure of cells to the combination of 20 μM of 1-6 with various doses of cisplatin was tested, followed by cell viability assay after two days.
A general note: Alamar Blue is a resazurin reagent that responds to reducing activity.

For assay [2], the system named is cisplatin-resistant ovarian cancer cell line A2780cis. Description: Caspase-3/7 activity assay (apoptotic cell death), compound alone or with cisplatin. The note with it: for caspase-3/7 activity (Lum) with compound alone / caspase-3/7 activity (Lum) with compound and cisplatin (20 μM): Table 6; for caspase-3/7 activity (Lum) with compound alone: untreated cells 9 ± 1. In a few lines: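 Caspase-3/7 activity in A2780cis cells treated with compound alone or with cisplatin, luminescent Caspase-Glo 3/7 read-out. Apoptotic morphology is checked microscopically just before measurement.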

Assay [3] shares this test system. Description: CellTiter-Blue cell viability assay, compound alone or with cisplatin or carboplatin, 24 h. As to conditions: 24 h. As to the method: Data were expressed as mean±standard deviation. A Student's t test was used for the comparisons between the treatment with the combination of analogs with cisplatin and with analogs alone. P<0.05 was considered statistically significant. Combination index was calculated using CompuSyn software. A value of 0.3-0.7 for the combination index indicates synergism, 0.1-0.3 indicates strong synergism, and <0.1 indicates very strong synergism (Chou, 2006).
To further validate the activity of the identified 11 active compounds (see FIG. 3), a CellTiter-Blue cell viability assay was performed with increasing concentrations (10 μM, 20 μM and 50 μM) of the disclosed compounds (see FIG. 4 and Table 5). Cisplatin resistant ovarian cancer cells (A2780cis) were treated with a disclosed compound alone, cisplatin alone or a combination of a compound with cisplatin for 24 h to determine the effects of the compounds on cell viability.
Analysis of the effect of the disclosed compounds with another platinum-containing compound, carboplatin, was performed. A2780cis cells were treated with carboplatin alone or with the combination of carboplatin and the disclosed compounds at indicated concentrations for 24 h followed by the analysis of cell viability.

The subject of assay [4] is A2780cis cells. Description: Western blot of caspase/PARP cleavage, Noxa induction, RPA32 and H2AX phosphorylation. The method, then: (§1) Whole cell lysate was prepared by lysing cells in cell lysis buffer (Cell signaling technology) containing complete protease inhibitor (Roche). Cell lysates were then cleared at 15,000 rpm for 15 min at 4° C. The protein content was quantified using a Bio-Rad Protein Assay kit (Bio-Rad Laboratories, Hercules, Calif.). The equal amount of protein was separated on Tris-glycine gels (Invitrogen). The separated proteins were blotted onto a polyvinylidene difluoride membrane and blocked overnight at 4° C. in phosphate-buffered saline containing 0.1% Tween 20 and 10% nonfat dry milk (blocking buffer). Membranes were incubated with primary antibodies in blocking buffer overnight at 4° C. Primary antibodies used were: β-actin from Sigma; Bax, Bak, Caspase-9 and cleaved Caspase-3 from Cell Signaling Technology; phospho-Histone H2AX (Ser 139) and Noxa from Millipore. Membranes were then washed and incubated in peroxidase conjugated anti-rabbit IgG (Sigma) or anti-mouse IgG (Sigma) secondary antibody for 1 h at room temperature. Membranes were developed using SuperSignal West Femto Maximum Sensitivity Substrate (Thermo Fisher Scientific).
A2780cis cells were treated with cisplatin alone, compounds alone or in combination with cisplatin at indicated concentrations for 20 h to analyze apoptotic cell death in response to treatment. […] Expression and cleavage of several major caspases (Caspase-8, Caspase-9 and Caspase-3), as well as poly(ADP-ribose) polymerase (PARP) and NOXA. A2780cis cells were treated with cisplatin (20 μM) alone, compounds (20 μM) alone or in combination with cisplatin for 20 h.
To determine the effects of the compounds on DNA damage and mitochondrial dysfunction, A2780cis cells were treated with cisplatin (20 μM) alone or the combination of cisplatin with 20 μM of compound 1-6. Replication protein A (RPA) is a single strand-specific DNA-binding protein, consisting of three subunits, RPA70, RPA32, and RPA14. RPA32 is phosphorylated in response to DNA replication stress. Western blot analysis was performed to evaluate the phosphorylation of RPA32 and histone H2AX, the induction of Noxa expression and cleavage of caspase-3. […] A2780cis cells were treated with cisplatin (50 μM) alone, 1-6 (50 μM) alone or the combination of cisplatin and compound 1-6 for 4 h. The oxygen consumption rate (OCR) was measured by a Seahorse extracellular flux analyzer.

Assay [5] deals with PEO4, SKOV3, H1299, MDA-MB-231, Ca133 cells. Description: Western blot of PARP and Caspase-3 cleavage in other cisplatin-resistant cancer cells. As to conditions: 20 μM alone, 20 h, FIG. 9; in words. The method, then: FIG. 9. The combination of cisplatin and compound 1-6 triggers extensive apoptosis in various types of cisplatin- and multidrug-resistant tumor cells. Cisplatin-resistant cancer cells PEO4 (ovarian), SKOV3 (ovarian), H1299 (lung), MDA-MB-231 (breast), Ca133 (head & neck) were treated with DMSO (untreated), cisplatin (20 μM) alone, compound 1-6 (20 μM) alone, or the combination for 20 h. Cleavage of PARP and Caspase-3 were determined by western blot.
as §1
To evaluate whether the synergistic effects of the disclosed compounds and cisplatin could be extended to other types of cancer cells, breast cancer cells (MDA-MB-231), non-small cell lung carcinoma cells (H-1299), ovarian cancer cells (PEO4 and SKOV3) and head and neck cancer cells (Ca133) were treated with various combinations of cisplatin and compound 1-6 and analyzed for Caspase-3.
(Immunoblotting shows a protein as a band on a membrane.)

The mark [6] stands for this setting: Table 1, compound 20 μM, 20 h, mean ± S.D. of triplicates.

For `N.N.[Cl][Pt][Cl]` [cisplatin, reference compound], in the assay with A2780cis cells [1], the “effect of 3 hr exposure to cisplatin alone on cell viability” value is “slight effect on cell viability”. Further, the “caspase-3/7 activity (Lum), compound alone” value in assay [2] (setting [6]) is reported as 30 ± 1 Lum; in assay [2] (Table 2, compound 20 μM, 20 h), 30 ± 1 Lum; in assay [2] (Table 3, compound 20 μM, 20 h) it was 35 ± 4 Lum; in assay [2] (Table 4, compound 20 μM, 20 h), 35 ± 4 Lum. The “caspase-3/7 activity (Lum) with compound alone” value in assay [2] (compound 20 μM, 20 h) is 28 ± 4 Lum. The “survival (%) of cells with compound alone” value in assay [3] (compound 20 μM, untreated cells = 100%) is 89.3 ± 0.6%. Moreover, the “time of increase in the phosphorylation of RPA32 post treatment, cisplatin alone” value in the assay with A2780cis cells [4] (cisplatin 20 μM alone, FIG. 8A) is listed as greater than 12 h. The “cell death after single compound exposure” value in assay [5] is “minimal effect in inducing cell death”.

For `CCc1ccccc1-n1c(=S)[nH]c2ccccc2c1=O` [Compound 1-19], the “activation of Caspase-3/7 in combination with cisplatin compared to mdivi-1” value in assay [2] (FIG. 7A and Table 6, in words) is recorded as “more effective; also recorded: more potent than mdivi-1”. For the same compound, the “caspase-3/7 activity (Lum), compound with cisplatin” value in assay [2] (Table 1, compound 20 μM with 20 μM cisplatin, 20 h) came out at 136 ± 12 Lum. The “caspase-3/7 activity (Lum), compound alone” value is on record as 12 ± 1 Lum in assay [2] (setting [6]) and 12 ± 1 Lum in assay [2] (Table 2, compound 20 μM, 20 h). Moreover, the “caspase-3/7 activity (Lum) with compound and cisplatin (20 μM)” value in assay [2] (compound 5 μM + cisplatin 20 μM, 20 h) worked out at 36 ± 3 Lum; in assay [2] (compound 10 μM + cisplatin 20 μM, 20 h) it was 114 ± 5 Lum; in assay [2] (compound 20 μM + cisplatin 20 μM, 20 h) it was 96 ± 11 Lum. Also, the “caspase-3/7 activity (Lum) with compound alone” value is 9 ± 2 Lum in assay [2] (compound 5 μM, 20 h); 8 ± 1 Lum in assay [2] (compound 10 μM, 20 h); 9 ± 1 Lum in assay [2] (compound 20 μM, 20 h). In addition, the “activity in the screen (Caspase-3/7 activity and microscopic examination), active / inactive” value in assay [2] (alone or in the presence of cisplatin, in words) is recorded as “active”. The “Caspase-3/7 activity upon combination with cisplatin compared to cisplatin alone or compound alone” value in assay [2] (in words) was “increase in Caspase-3/7 activity”. Besides, the “cell viability after combination with carboplatin compared to carboplatin alone” value in assay [3] (FIG. 6, in words) was “cell viability was reduced”. For the same compound, in assay [3] (Homo sapiens, A2780cis, compound 10 μM, untreated cells = 100%, read-out: survival (%) of cells with compound alone), the viability at 10 µM stood at 103 ± 1.2%. The viability at 20 µM in assay [3] (Homo sapiens, A2780cis, compound 20 μM, untreated cells = 100%, read-out: survival (%) of cells with compound alone) came out at 99.6 ± 3%. Moreover, the viability at 50 µM in assay [3] (Homo sapiens, A2780cis, compound 50 μM, untreated cells = 100%, read-out: survival (%) of cells with compound alone) came to 98.5 ± 1.7%. Besides, the “Survival (%) of cells with compound and carboplatin (200 μM)” value is on record as 103.5 ± 1.6% in assay [3] (compound 10 μM + carboplatin 200 μM), 70.0 ± 2.9% in assay [3] (compound 20 μM + carboplatin 200 μM) and 31.6 ± 4.2% in assay [3] (compound 50 μM + carboplatin 200 μM). Besides, the “survival (%) of cells with compound and cisplatin (20 μM)” value is 47.9 ± 4.8% in assay [3] (compound 10 μM + cisplatin 20 μM), 25.3 ± 1.0% in assay [3] (compound 20 μM + cisplatin 20 μM) and 4.9 ± 1.4% in assay [3] (compound 50 μM + cisplatin 20 μM). Further, the “cleavage of caspases and PARP, induction of Noxa in combination with cisplatin” value with A2780cis cells [4] (compound 20 μM + cisplatin 20 μM, 20 h, FIG. 7B, in words) was “cleavage of Caspase-8, 9, 3, PARP and the induction of Noxa”.
